Measurements reported in patent US5084453A, “1-carboxy-1-vinyloxyimino aminothiazole cephalosporin derivatives” (priority 1988, dated 1992).
In brackets after ≈: the same amount, converted by molar mass. Read-outs that look alike come from different tables or passages of the source.

Tests used:
Experiment in all cases: in vitro antibacterial activity, agar plate dilution method
Type in all cases: cell-based
A. calcoaceticus No. 4 = conditions: Acinetobacter calcoaceticus
Experimental: (§1) Now, the in vitro antibacterial activities of the compounds of the present invention against various microorganisms, were measured by the following agar plate dilution method.
(§2) One platinum loopfull of each test microorganism incubated overnight in Mueller Hinton broth, was inoculated to Mueller Hinton agar (MH agaer). Such culture media containing various antibiotics in various concentrations were prepared. After incubation at 37° C. for 16 hours, the minimum inhibitory concentrations (MIC μg/ml) were measured.

E. cloacae 963 = conditions: Enterobacter cloacae, 963, 16 h
Experimental: as §1, §2

E. cloacae Nek 39* = conditions: Enterobacter cloacae
Experimental: as §1, §2

E. coli CSH(RE45)* = conditions: Escherichia coli; 10^6 CFU/ml; β-Lactamase-producing strain; 37° C., 16 hours; read-out: MIC
Experimental: as §1, §2

E. coli CSH2(RK1)* = conditions: Escherichia coli, 16 h
Experimental: as §1, §2

E. coli GN5482* = conditions: Escherichia coli, GN5482, 16 h
Experimental: as §1, §2

E. coli NIHJ JC2 = conditions: Escherichia coli, NIHJJC2; 10^6 CFU/ml; Mueller Hinton agar, 37° C., 16 hours; read-out: MIC
Experimental: as §1, §2

K. oxytoca GN10650* = conditions: Klebsiella oxytoca, GN10650, 16 h
Experimental: as §1, §2

K. pneumoniae No. 42* = conditions: Klebsiella pneumoniae, 16 h
Experimental: as §1, §2

K. pneumoniae PC1-602 = conditions: Klebsiella pneumoniae
Experimental: as §1, §2

M. morganii GN5407* = conditions: Morganella morganii
Experimental: as §1, §2

P. vulgaris HX-19 = conditions: Proteus vulgaris
Experimental: as §1, §2

P. vulgaris No. 33* = conditions: Proteus vulgaris
Experimental: as §1, §2

Ps. aeruginosa AK 109 = conditions: Pseudomonas aeruginosa
Experimental: as §1, §2

Ps. aeruginosa AKR17 = conditions: Pseudomonas aeruginosa, AKR17; 10^6 CFU/ml; Mueller Hinton agar, 37° C., 16 hours; read-out: MIC
Experimental: as §1, §2

Ps. aeruginosa IFO3445 = conditions: Pseudomonas aeruginosa
Experimental: as §1, §2

Ps. cepacia 23 = tested on: Ps. cepacia 23
Experimental: as §1, §2

S. aureus 209P NIHJ-JC1 = conditions: Staphylococcus aureus
Experimental: as §1, §2

S. marcescens IAM 1184 = conditions: Serratia marcescens
Experimental: as §1, §2

S. marcescens No. 16-2* = conditions: Serratia marcescens
Experimental: as §1, §2

[1] = NO.4, 10^6 CFU/ml, Mueller Hinton agar, 37° C., 16 hours, read-out: MIC
[2] = 10^6 CFU/ml, β-Lactamase-producing strain, 37° C., 16 hours, read-out: MIC
[3] = HX19, 10^6 CFU/ml, Mueller Hinton agar, 37° C., 16 hours, read-out: MIC
[4] = AK109, 10^6 CFU/ml, Mueller Hinton agar, 37° C., 16 hours, read-out: MIC
[5] = Burkholderia cepacia, 23, 10^6 CFU/ml, Mueller Hinton agar, 37° C., 16 hours, read-out: MIC
[6] = 10^6 CFU/ml, Mueller Hinton agar, 37° C., 16 hours, read-out: MIC
[7] = PC1602, 10^6 CFU/ml, Mueller Hinton agar, 37° C., 16 hours, read-out: MIC
[8] = IAM1184, 10^6 CFU/ml, Mueller Hinton agar, 37° C., 16 hours, read-out: MIC

SMILES	MIC (A. calcoaceticus No. 4; [1]) [µg/mL]	MIC (E. cloacae 963) [µg/mL]	MIC (E. cloacae Nek 39*; [2]) [µg/mL]	MIC (E. coli CSH(RE45)*) [µg/mL]	MIC (E. coli CSH2(RK1)*) [µg/mL]	MIC (E. coli GN5482*) [µg/mL]	MIC (E. coli NIHJ JC2) [µg/mL]	MIC (K. oxytoca GN10650*) [µg/mL]	MIC (K. pneumoniae No. 42*) [µg/mL]	MIC (K. pneumoniae PC1-602; PC1602, 16 h) [µg/mL]	MIC (M. morganii GN5407*; GN5407, 16 h) [µg/mL]	MIC (P. vulgaris HX-19; [3]) [µg/mL]	MIC (P. vulgaris No. 33*; [2]) [µg/mL]	MIC (Ps. aeruginosa AK 109; [4]) [µg/mL]	MIC (Ps. aeruginosa AKR17) [µg/mL]	MIC (Ps. cepacia 23; [5]) [µg/mL]	MIC (S. aureus 209P NIHJ-JC1; [6]) [µg/mL]	MIC (S. marcescens IAM 1184; IAM1184, 16 h) [µg/mL]	MIC (S. marcescens No. 16-2*; 16 h) [µg/mL]	MIC (Ps. aeruginosa IFO3445; IFO3445, 16 h) [µg/mL]	other results
C=C(O/N=C(\C(=O)N[C@@H]1C(=O)N2C(C(=O)[O-])=C(C[n+]3ccc(C(=O)O)cc3)CS[C@H]12)c1csc(N)n1)C(=O)O [Example 5, 7β-[2-(2-aminothiazol-4-yl)-2-(1-carboxy-1-vinyloxyimino)acetamido]-3-(4-carboxy-1-pyridinio)methyl-3-cephem-4-carboxylate (syn-isomer)]	50 (≈ 87 µM)	0.2 (≈ 0.348 µM)	3.12 (≈ 5.43 µM)	0.05 (≈ 0.087 µM)	0.2 (≈ 0.348 µM)	1.56 (≈ 2.72 µM)	0.2 (≈ 0.348 µM)	0.39 (≈ 0.679 µM)	0.39 (≈ 0.679 µM)	0.025 (≈ 0.0435 µM)	0.025 (≈ 0.0435 µM)	< 0.006	0.0125 (≈ 0.0218 µM)	25 (≈ 43.5 µM)	> 100	12.5 (≈ 21.8 µM)	12.5 (≈ 21.8 µM)	0.025 (≈ 0.0435 µM)	6.25 (≈ 10.9 µM)	–	MIC (Ps. aeruginosa IFO3445; IFO3445, 10^6 CFU/ml, Mueller Hinton agar, 37° C., 16 hours, read-out: MIC): 25 µg/mL (≈ 43.5 µM)
CC(C)(O/N=C(\C(=O)N[C@@H]1C(=O)N2C(C(=O)[O-])=C(C[n+]3ccccc3)CS[C@H]12)c1csc(N)n1)C(=O)O [Ceftazidime, reference compound]	–	0.1 (≈ 0.183 µM)	–	0.2 (≈ 0.366 µM)	0.1 (≈ 0.183 µM)	1.56 (≈ 2.85 µM)	0.1 (≈ 0.183 µM)	0.1 (≈ 0.183 µM)	0.39 (≈ 0.714 µM)	0.25 (≈ 0.457 µM)	0.1 (≈ 0.183 µM)	–	–	–	> 100	–	–	< 0.006	1.56 (≈ 2.85 µM)	1.56 (≈ 2.85 µM)	MIC (A. calcoaceticus No. 4; NO.4, 16 h): 6.25 µg/mL (≈ 11.4 µM); MIC (E. cloacae Nek 39*; 16 h): 1.56 µg/mL (≈ 2.85 µM); MIC (P. vulgaris HX-19; HX19, 16 h): 0.025 µg/mL (≈ 0.0457 µM); MIC (P. vulgaris No. 33*; 16 h): 0.5 µg/mL (≈ 0.915 µM); MIC (Ps. aeruginosa AK 109; AK109, 16 h): 0.78 µg/mL (≈ 1.43 µM); MIC (Ps. cepacia 23; Burkholderia cepacia, 23, 16 h): 0.78 µg/mL (≈ 1.43 µM); MIC (S. aureus 209P NIHJ-JC1; 16 h): 6.25 µg/mL (≈ 11.4 µM)
C=C(O/N=C(\C(=O)N[C@@H]1C(=O)N2C(C(=O)[O-])=C(C[n+]3cccc(C(N)=O)c3)CS[C@H]12)c1csc(N)n1)C(=O)O [Example 4, 7β-[2-(2-aminothiazol-4-yl)-2-(1-carboxy-1-vinyloxyimino)acetamido] vinyloxyimino)acetamido]-3-(3-carbamoyl-1-pyridinio)methyl-3-cephem-4-carboxylate (syn-isomer)]	3.12 (≈ 5.44 µM)	0.05 (≈ 0.0872 µM)	–	0.025 (≈ 0.0436 µM)	0.025 (≈ 0.0436 µM)	0.2 (≈ 0.349 µM)	0.05 (≈ 0.0872 µM)	0.1 (≈ 0.174 µM)	0.1 (≈ 0.174 µM)	–	–	0.0125 (≈ 0.0218 µM)	0.0125 (≈ 0.0218 µM)	12.5 (≈ 21.8 µM)	> 100	3.12 (≈ 5.44 µM)	–	–	0.78 (≈ 1.36 µM)	1.56 (≈ 2.72 µM)	MIC (E. cloacae Nek 39*; 16 h): 0.2 µg/mL (≈ 0.349 µM); MIC (K. pneumoniae PC1-602; [7]): 0.0125 µg/mL (≈ 0.0218 µM); MIC (M. morganii GN5407*; GN5407, 10^6 CFU/ml, β-Lactamase-producing strain, 37° C., 16 hours, read-out: MIC): 0.0125 µg/mL (≈ 0.0218 µM); MIC (S. aureus 209P NIHJ-JC1; 16 h): 1.56 µg/mL (≈ 2.72 µM); MIC (S. marcescens IAM 1184; [8]): 0.0125 µg/mL (≈ 0.0218 µM)
C=C(O/N=C(\C(=O)N[C@@H]1C(=O)N2C(C(=O)O)=C(COC(C)=O)CS[C@H]12)c1csc(N)n1)C(=O)O [Example 17, disodium 7β-[2-(2-aminothiazol-4-yl)-2-(1-carboxylato-1-vinyloxyimino)acetamido]cephalosporanate (syn-isomer)]	25	0.1	3.12	0.1	0.025	1.56	0.1	0.05	0.2	–	0.025	< 0.006	–	–	> 100	–	12.5	–	–	6.25	MIC (K. pneumoniae PC1-602; [7]): 0.0125 µg/mL; MIC (P. vulgaris No. 33*; 16 h): 0.1 µg/mL; MIC (Ps. aeruginosa AK 109; AK109, 16 h): 6.25 µg/mL; MIC (Ps. cepacia 23; Burkholderia cepacia, 23, 16 h): 1.56 µg/mL; MIC (S. marcescens IAM 1184; [8]): 0.0125 µg/mL; MIC (S. marcescens No. 16-2*; [2]): 3.12 µg/mL
